ChEMBL document CHEMBL4145520, “Small-molecule Mcl-1 inhibitors: Emerging anti-tumor agents” (Eur J Med Chem, 2018)
pEC50, pIC50, pKd, pKi: −log10 of the molar value.

Tests used:
[1] = target: T1, Induced myeloid leukemia cell differentiation protein Mcl-1 (Homo sapiens, UniProt Q07820); assay: Inhibition of FITC-BAK binding to MCL1 (172 to 327 residues) (unknown origin) by fluorescence polarization assay
[2] = target: T1, Induced myeloid leukemia cell differentiation protein Mcl-1; assay: Binding affinity to MCL1 (unknown origin) by surface plasma resonance method
[3] = Induction of apoptosis in human MOLP8 cells assessed as caspase 3/7 activation after 2 hrs by caspase-Glo 3/7 assay; format: functional, cell-based; settings: MOLP-8, 2 h
[4] = Antiproliferative activity against human NCI-H2110 cells after 48 hrs by CellTiter-Glo assay; format: functional, cell-based; settings: NCI-H2110, 48 h
[5] = test system: NCI-H23; assay: Antiproliferative activity against human NCI-H23 cells after 48 hrs by CellTiter-Glo assay; format: functional, cell-based; settings: NCI-H23, 48 h
[6] = target: T2, Bcl-2-like protein 1 (Homo sapiens, UniProt Q07817); assay: Inhibition of biotin labelled Bid-BH3 binding to GST-tagged BCL-XL (unknown origin) preincubated for 15 mins followed by biotin labelled Bid-BH3 addition measured after 2 hrs by ELISA
T2 sequence (Q07817 whole entry): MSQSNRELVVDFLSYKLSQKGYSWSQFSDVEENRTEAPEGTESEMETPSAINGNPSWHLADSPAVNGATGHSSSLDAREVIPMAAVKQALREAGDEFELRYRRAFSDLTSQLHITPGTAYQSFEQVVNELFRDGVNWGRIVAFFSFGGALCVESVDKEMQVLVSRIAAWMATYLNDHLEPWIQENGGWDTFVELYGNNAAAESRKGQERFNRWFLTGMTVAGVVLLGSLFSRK

[7] = test system: MDA-MB-468; assay: Cytotoxicity against human MDA-MB-468 cells assessed as reduction in cell viability by MTT assay; format: functional, cell-based
[8] = test system: HeLa; assay: Cytotoxicity against human HeLa cells assessed as reduction in cell viability after 72 hrs; format: functional, cell-based
[9] = test system: RS4-11; assay: Cytotoxicity against human RS4:11 cells assessed as reduction in cell viability after 72 hrs; format: functional, cell-based; settings: RS4-11, 72 h
[10] = target: T2, Bcl-2-like protein 1; assay: Inhibition of biotin labelled Bid-BH3 binding to C-terminal GST-tagged human BCL-XL […] expressed in Escherichia coli BL21 (DE3) preincubated for 1 hr followed by followed by biotin labelled Bid-BH3 addition measured after 2 hrs by ELISA
[11] = target: T1, Induced myeloid leukemia cell differentiation protein Mcl-1; assay: Inhibition of N-terminal 26 residues truncated 5-FAM labelled Bid-BH3 binding to MCL1 (unknown origin) by fluorescence polarization assay
[12] = target: T1, Induced myeloid leukemia cell differentiation protein Mcl-1; assay: Displacement of FAM labelled Bid-derived peptide from MCL1 (unknown origin) incubated for 1 min by fluorescence polarization assay
[13] = target: Apoptosis regulator Bcl-2 (Homo sapiens, UniProt P10415); assay: Displacement of FAM labelled Bid-derived peptide from Bcl-2 (unknown origin) incubated for 1 min by fluorescence polarization assay
Apoptosis regulator Bcl-2, sequence (P10415 whole entry): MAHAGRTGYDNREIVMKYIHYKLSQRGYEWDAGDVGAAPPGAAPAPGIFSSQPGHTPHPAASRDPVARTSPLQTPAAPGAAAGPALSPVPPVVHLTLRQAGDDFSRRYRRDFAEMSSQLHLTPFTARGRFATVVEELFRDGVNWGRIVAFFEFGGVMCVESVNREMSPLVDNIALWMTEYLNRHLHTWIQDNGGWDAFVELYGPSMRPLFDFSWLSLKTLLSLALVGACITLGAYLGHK

[14] = species on record: Homo sapiens; assay: Selectivity ratio of Ki for Bcl-2 (unknown origin) to Ki for MCL1 (unknown origin)
[15] = test system: HL-60; assay: Induction of apoptosis in human HL60 cells after 48 hrs by Annexin V-FITC staining based flow cytometry; format: functional, cell-based; settings: HL-60, 48 h
[16] = Selectivity ratio of IC50 for human HL60 cells to IC50 for human NCI-H345 cells; format: functional
[17] = test system: NCI-H345; assay: Induction of apoptosis in human NCI-H345 cells after 48 hrs by Annexin V-FITC staining based flow cytometry; format: functional, cell-based; settings: NCI-H345, 48 h
[18] = target: T1, Induced myeloid leukemia cell differentiation protein Mcl-1; assay: Inhibition of His6 tagged MBP fused Mcl-1 (unknown origin) after 0.5 hrs by fluorescence polarization assay
[19] = test system: RS4-11; assay: Cytotoxicity against human RS4:11 cells assessed as reduction in cell viability; format: functional, cell-based
[20] = target: T1, Induced myeloid leukemia cell differentiation protein Mcl-1; assay: Inhibition of Mcl-1 (unknown origin) by TR-FRET assay
[21] = target: T1, Induced myeloid leukemia cell differentiation protein Mcl-1; assay: Inhibition of FAM labelled Bid-BH3 binding to N-terminal GST-tagged human recombinant MCL1 expressed in Escherichia coli […] after 60 mins by TR-FRET assay
[22] = target: T1, Induced myeloid leukemia cell differentiation protein Mcl-1; assay: Inhibition of FITC-BAK binding to His6 tagged MBP fused recombinant human MCL1 (172 to 327 residues) expressed in Escherichia coli by fluorescence polarization competition assay
[23] = test system: A-375; assay: Growth inhibition of human A375 cells after 48 hrs by CellTiter-Blue assay; format: functional; settings: A-375, 48 h
[24] = Inhibition of recombinant FITC tagged Bid-BH3 binding to BCL-XL deltaC (unknown origin) expressed in Escherichia coli BL21 (DE3) by fluorescence polarization assay; parameters: species or system Homo sapiens
[25] = test system: B-ALL; assay: Cytotoxicity against human B-ALL cells assessed as reduction in cell viability after 24 hrs by CellTiter-Glo luminescent assay; format: functional, cell-based

T1 sequence (Q07820 whole entry, the tested form may be a part): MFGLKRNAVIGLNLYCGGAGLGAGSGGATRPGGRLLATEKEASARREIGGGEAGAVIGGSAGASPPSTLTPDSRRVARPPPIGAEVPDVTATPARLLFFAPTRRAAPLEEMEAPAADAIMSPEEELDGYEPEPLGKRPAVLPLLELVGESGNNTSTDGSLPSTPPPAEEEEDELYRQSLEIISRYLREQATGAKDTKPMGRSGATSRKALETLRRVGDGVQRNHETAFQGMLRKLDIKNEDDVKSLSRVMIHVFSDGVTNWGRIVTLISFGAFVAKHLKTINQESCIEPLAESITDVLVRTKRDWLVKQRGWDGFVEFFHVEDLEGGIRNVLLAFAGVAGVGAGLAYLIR

In the case of `Cc1cc(Oc2ccc(C(=O)O)c(OCc3ccccc3)n2)cc(C)c1Cl`, the pKi [1] was 5.54.
With `N#CC1=C(NCCC(=O)O)c2ccc(Sc3ccc(Br)cc3)c3cccc(c23)C1=O` the pKd [2] was 6.82.
`CC(=O)c1cccc(OCc2nn(C)c(C)c2-c2cccc3c(CCCOc4cccc5ccccc45)c(C(=O)O)[nH]c23)c1` gave a pEC50 [3] of 5.57.
For `O=C(O)c1[nH]c2ccccc2c1CCCCC1CCCCC1`, the pEC50 [4] was 5.28 and the pEC50 [5] was 5.14.
For `CC(=O)c1cc(OCc2nn(C)c(C)c2-c2cccc3c(CCCOc4cccc5ccccc45)c(C(=O)O)[nH]c23)ccc1B(O)O`, the pEC50 [3] was 6.77.
`Cc1c(-c2cccc3c(CCCOc4cccc5ccccc45)c(C(=O)O)[nH]c23)c(COc2cccc(C=O)c2)nn1C` showed a pEC50 [3] of less than 4.96.
Work on `Cc1c(-c2cccc3c(CCCOc4cccc5ccccc45)c(C(=O)O)[nH]c23)c(COc2ccc(B(O)O)c(C=O)c2)nn1C` yielded a pEC50 [3] of 6.34.
For `O=C(O)CSc1ccc(C(=O)c2[nH]c(Cl)c(Cl)c2-n2c(C(=O)c3ccc(SCC(=O)O)cc3O)cc(Cl)c2Cl)c(O)c1`, the pIC50 [6] was less than 4.00 and the pIC50 [7] was 4.54.
For `O=C(c1ccccc1O)c1[nH]c(Cl)c(Cl)c1-n1c(C(=O)c2ccccc2O)cc(Cl)c1Cl`, the pIC50 [8] was 4.70, the pIC50 [9] was 5.70 and the pIC50 [10] was less than 4.10.
`COc1cc(NC(=O)CCC(=O)N2CCN(Cc3cccc(-c4ccc(Cl)cc4)c3)CC2)cc(OC)c1OC` showed a pKi [11] of 6.49.
For `O=C(O)c1cc2ccccc2n1S(=O)(=O)c1ccc(OCc2cccc(Cl)c2)cc1`, the pKi [12] was 6.32, the pKi [13] was 5.44 and the Ratio Ki [14] was 7.5. For the same molecule, the pIC50 [15] was 4.20, the “Ratio IC50” value [16] was 30 and the pIC50 [17] was 5.66.
Work on `COc1cc(CC(=O)NCc2ccc(C(=O)N3CCN(Cc4ccccc4-c4ccccc4)CC3)cc2)cc(OC)c1OC` yielded a pKi [11] of 6.74.
In the case of `Cc1cc(OCCCc2c3n(c4c(-c5c(C)nn(C)c5C)c(Cl)ccc24)CCCC(c2cc(C(=O)O)c4ccn(C)c4c2)C3=O)cc(C)c1Cl` (stereo not drawn), the pKi [18] was greater than 9.00.
Molecule `Cc1c(-c2cccc3c(CCCOc4cccc5ccccc45)c(C(=O)O)[nH]c23)c(COc2ccccc2)nn1C` has a pEC50 [3] of less than 4.96.
With `Cc1c(-c2cccc3c(CCCOc4cccc5ccccc45)c(C(=O)O)n(C)c23)c(COc2ccc(B(O)O)c(C=O)c2)nn1C` the pEC50 [3] was 7.12.
With `CC1(C)CCC(CN2CCN(c3ccc(C(=O)NS(=O)(=O)c4ccc(NCC5CCOCC5)c([N+](=O)[O-])c4)c(Oc4cnc5[nH]ccc5c4)c3)CC2)=C(c2ccc(Cl)cc2)C1` [VENETOCLAX] the pIC50 [19] was 8.30 to 8.82 and the pKi [20] was less than 6.35.
`Cc1c(-c2cccc3c(CCCOc4cccc5ccccc45)c(C(=O)O)[nH]c23)c(COc2ccc(B(O)O)cc2)nn1C` gave a pEC50 [3] of less than 4.96 and a pIC50 [21] of 6.79.
For `Cc1cc(Oc2ccc(S(=O)(=O)N3CC(C(=O)O)Cc4ccccc43)cc2)cc(C)c1Cl` (stereo not drawn), the pKi [22] was 6.92 and the GI50 [23] was 50 µM.
For `CCc1nn(C)c(CC)c1-c1cccc2c(CCCOc3cccc4ccccc34)c(C(=O)O)n(CCN3CCOCC3)c12`, the pEC50 [3] was 6.46.
Molecule `Cc1cs/c(=N\C2CCCCC2)n1/N=C/c1ccc(O)c(O)c1O` has a pIC50 [24] of less than 4.30 and a pIC50 [25] of 5.38.
